Results: ChEMBL document CHEMBL3046901, “3D-pharmacophore model based virtual screening to identify dual-binding site and selective acetylcholinesterase inhibitors” (Med Chem Res, 2011)

Each compound was assayed against Acetylcholinesterase (Homo sapiens, UniProt P22303) (assay: Inhibition of acetylcholinesterase (unknown origin)).
Acetylcholinesterase, sequence (P22303 whole entry): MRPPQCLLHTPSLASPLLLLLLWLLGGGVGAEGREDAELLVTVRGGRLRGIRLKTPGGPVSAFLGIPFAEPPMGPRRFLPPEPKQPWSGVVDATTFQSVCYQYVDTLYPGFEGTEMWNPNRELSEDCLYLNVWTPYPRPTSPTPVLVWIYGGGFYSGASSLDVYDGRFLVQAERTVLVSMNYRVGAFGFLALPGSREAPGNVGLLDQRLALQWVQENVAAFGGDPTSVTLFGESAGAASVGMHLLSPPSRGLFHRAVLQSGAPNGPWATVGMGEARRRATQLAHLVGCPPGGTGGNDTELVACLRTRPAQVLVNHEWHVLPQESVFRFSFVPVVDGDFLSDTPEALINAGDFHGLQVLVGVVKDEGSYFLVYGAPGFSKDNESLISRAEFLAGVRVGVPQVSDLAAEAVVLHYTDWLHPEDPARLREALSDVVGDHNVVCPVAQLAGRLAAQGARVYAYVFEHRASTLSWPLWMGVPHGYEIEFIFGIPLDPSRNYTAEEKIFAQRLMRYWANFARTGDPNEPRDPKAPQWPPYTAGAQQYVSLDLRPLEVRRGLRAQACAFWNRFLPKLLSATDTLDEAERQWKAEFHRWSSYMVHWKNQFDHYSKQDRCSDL
`CNCOc1cccc(CN(C)CCCCCCCOc2ccc3c(=O)c4ccccc4oc3c2)c1` was tested, and the IC50 was 0.32 nM.
`CCN(CCCCCOc1ccc2c(=O)c3ccccc3oc2c1)Cc1cccc(OC(=O)NC)c1` was tested, and the IC50 was 0.82 nM.
`CN(CCCCCOc1ccc2c(=O)c3ccccc3oc2c1)Cc1ccccc1` showed an IC50 of 6250 nM.
